# Laboratory results from patent US11246871B2, “Targeting adenosine A2A receptors for the treatment of levodopa-induced dyskinesias” (Northwestern University, priority 2016, dated 2022).
# “Also recorded” adds a separate entry of the source.
# Legend:
# [1] = system: unilateral 6-OHDA lesioned mice (L-DOPA-induced dyskinesia); assay: Mouse unilateral 6-OHDA model and LID, abnormal involuntary movements (AIMs) scoring; assay type: in vivo
# Procedure: Mouse Unilateral 6-Hydroxydopamine (6-OHDA) Model and LID
# Mice were anaesthetized with an isoflurane precision vaporizer, placed in a stereotaxic frame, and a hole was drilled over the medial forebrain bundle. After exposing the skull, 3.5 mg ml^−1 free base 6-OHDA with 0.02% ascorbic acid was injected using a glass micropipette. Three weeks after surgery, the degree of damage to nigrostriatal DA neurons was assessed with a forelimb-use asymmetry test. Striatal sections from a subset of mice were stained with tyrosine hydroxylase to verify successful lesion. One day after the test, mice underwent behavioral testing for abnormal involuntary movements (AIMs) following L-DOPA treatment. Treatment with L-DOPA was given daily for 15 days at the doses of 3 mg kg^−1. Animals were randomly allocated to receive treatment with L-DOPA and vehicle, or L-DOPA and an A2a receptor antagonist.
# Data analysis was conducted with Igor Pro 6 and Clampfit 9. EPSP amplitude was calculated from 50 sweeps immediately before the start of induction and 20-30 min after the end of induction. Compiled data were expressed as mean±SEM. Statistical tests were performed using Excel and SigmaStat. […] Data were analyzed using parametric repeated measure two-way ANOVA followed by post hoc Bonferroni's test.
# iSPNs = assay: Patch-clamp recording of LTD induction in striatal slices from 6-OHDA lesioned animals; set-up: species or system Mouse; settings: dyskinetic ON-state after L-DOPA
# Procedure: (§1) Mice were deeply anesthetized intraperitoneally with a mixture of ketamine and xylazine. Parasagittal slices were cut in ice-cold aCSF. Whole-cell and perforated-patch recordings were performed in the dorsolateral striatum at 30-31° C. […] These protocols consisted of 20-60 trains of five bursts repeated at 0.1 Hz, with each burst composed of three APs preceded with three EPSPs at 50 Hz (pre-post timing pairing, +5 ms) or three APs followed by one EPSP (post-pre timing pairing, −10 ms). To ensure induction of consistent synaptic plasticity, postsynaptic neurons were depolarized to −70 mV from their typical resting membrane potentials (−85 mV) during their induction. GABAA was blocked by the bath application of gabazine (10 μM).
# (§2) Data analysis was conducted with Igor Pro 6 and Clampfit 9. EPSP amplitude was calculated from 50 sweeps immediately before the start of induction and 20-30 min after the end of induction. Compiled data were expressed as mean±SEM. Statistical tests were performed using Excel and SigmaStat. Nonparametric Mann-Whitney or Wilcoxon tests were used to assess the experiment results, using a probability threshold of 0.05. Statistical analyses for behavioral data were carried out using Prism 6. Data were analyzed using parametric repeated measure two-way ANOVA followed by post hoc Bonferroni's test.
# dSPNs = assay: Patch-clamp recording of LTP induction in striatal slices from 6-OHDA lesioned animals; set-up: species or system Mouse; settings: shortly after the last injection of L-DOPA (ON-state)
# Procedure: as §1, §2
Compound,"development of LID behaviors ([1]; systemic tozadenant 30 mg/kg 5 hours after L-DOPA doses, L-DOPA 3 mg/kg daily for 15 days, vs L-DOPA+vehicle, p<0.05)",LID scores induced by subsequent doses of L-DOPA (ON-state) ([1]; treated in the LID OFF-state),LTD induction in iSPNs (iSPNs),LTP induction in dSPNs (dSPNs)
COc1ccc(N2CCOCC2)c2sc(NC(=O)N3CCC(C)(O)CC3)nc12 [tozadenant],reduces the development of LID behaviors,significantly attenuates LID scores,,
"N[C@@H](Cc1ccc(O)c(O)c1)C(=O)O [L-DOPA, L-3,4-dihydroxyphenylalanine]",,,LTD was recovered; also recorded: LTD in iSPNs,LTP was recovered in dSPNs; also recorded: restores LTP in dSPNs
